This note sets out measurements from patent US6875762B2, “Tetracyclic azepinoindole compounds” (Pfizer, priority 1999, dated 2005).

In the experiment the target is T1, Human 5-HT2C receptor (Homo sapiens, UniProt P28335).
T1 construct: expressed in transfected cells; host or cells: HEK293 (HEK293-h5-HT2C-5 cell line), membranes
Description: Test A: scintillation proximity radioligand binding assay with [3H]serotonin. The note with it: membranes of HEK293-h5-HT2C-5 cells, [3H]serotonin final 4 nM, IC50 converted by Cheng-Prusoff, Kd 7 nM; for pKi: read-out: Receptor binding 5HT2c Ki; for Ki: Receptor binding 5HT2c Ki (nM). As for the experimental part:
The gene was inserted into expression vectors containing resistance genes as selectable markers. […] The receptor was used under license from D. J. Julius at Columbia University.
The HEK293-h5-HT2C-5 cell line was seeded from frozen stocks into DMEM high glucose salts medium supplemented with sodium pyruvate, Penicillin/Streptomycin solution, G418 (0.25 g/L), hygromycin B ([…]), and Fetal Bovine Serum (3%). […] At approximately 90% confluency, the cells were rinsed with ice-cold PBS and scraped from the NUNC plates using 3M squeegees. The cells were broken with a VirTishear homogenizer. The remaining particulate matter was removed by low-speed centrifugation. Finally, the membranes were concentrated by high-speed centrifugation and resuspended in binding buffer, 50 mM TRIS, 5 mM MgCl2, pH 7.4. The preparation was held in a water-ice slurry while a pilot binding assay was performed (1.5 hours), and then quick-frozen in aliquots appropriate for 1 tube for each 96-well assay plate.
Assays were performed in Wallac microtitre PET plates designed for the Wallac microBeta LSC. Binding reactions contained test compound (11 μl), [^3H]serotonin (124 Ci/mmol, 11 μl for final 4 nM) and bead-membrane mixture (178 μl). The test compound was replaced by water to determine total binding, or by mianserin (5 μM) to define non-specific binding.
The bead-membrane mixture was made by adding 100 mg Wheatgerm Agglutinin SPA beads (Amersham) and membrane preparation (2-5 mg protein) in a total of 8 ml binding buffer for each 96-well assay plate. The mixture was stirred gently for 30 minutes at room temperature, followed by centrifugation (1000 RPM, Beckman Accuspin FR) for 10 minutes. The supernatant, containing excess membrane, was aspirated, and the beads resuspended in 18.5 ml binding buffer for each assay plate. The washed bead-membrane mix was then poured into a reagent reservoir. The mixture was pipetted into the assay plate with a multi-channel pipetter, maintaining constant stirring during pipetting.
After the reactions were complete, the plates were sealed with plastic tape and placed on a gyrotory shaker (150 rpm) for 5 minutes. After shaking, room temperature incubation continued for 2 hours. Finally, the plates were loaded into counting cassettes and counted with the Wallac microBeta LSC.
Eleven half-log serial dilutions of test compounds were made in water using the PE/Cetus Pro/Pette pipetter. These dilutions were distributed to assay plates using the same instrument, followed by radioligand and the bead-membrane mixture prepared as described above. The specifically bound cpm obtained were fit to a one-site binding model using GraphPad Prism ver. 2.0.

Molecules are shown by their SMILES. pKi: −log10 of the molar value. Structures can show the parent of a compound that is named as a salt. Where two headings read alike, the source gives them in different places.

T1 sequence (P28335 33-458): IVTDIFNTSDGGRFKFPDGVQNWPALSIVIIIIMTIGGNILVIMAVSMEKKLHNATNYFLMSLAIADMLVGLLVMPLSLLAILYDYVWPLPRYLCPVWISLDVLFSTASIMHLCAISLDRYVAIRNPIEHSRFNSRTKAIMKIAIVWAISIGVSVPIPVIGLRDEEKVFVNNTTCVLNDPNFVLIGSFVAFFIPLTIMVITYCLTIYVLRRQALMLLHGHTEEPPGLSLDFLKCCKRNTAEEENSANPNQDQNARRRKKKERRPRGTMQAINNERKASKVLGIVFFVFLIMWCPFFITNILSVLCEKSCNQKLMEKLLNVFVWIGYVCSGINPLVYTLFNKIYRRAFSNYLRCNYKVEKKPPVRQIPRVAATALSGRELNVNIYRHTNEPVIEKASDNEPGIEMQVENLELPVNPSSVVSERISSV

Consider `CC1Cn2c3c(c4cccc(c42)O1)CCNCC3` (stereo not drawn) [Example 26, 2-methyl-1,2,8,9,10,11-hexahydro-7H-azepino[4,5-b][1,4]oxazino[2,3,4-hi]indole hydrochloride], for which the negative logarithm of the Ki (pKi) is 7.54.
`CC1CCc2cccc3c4c(n1c23)CCNCC4` (single isomer, unassigned; (+)) [Example 8, (+)-6-methyl-5,6,9,10,11,12-hexahydro-4H,8H-azepino[4′,5′:4,5]pyrrolo[3,2,1-ij]quinoline hydrochloride]: the pKi is 7.29.
Turning to `CC1c2cccc3c4c(n(c23)C1C)CCNCC4` (stereo not drawn) [Example 18, 4,5-dimethyl-4,5,8,9,10,11-hexahydro-7H-azepino[4,5-b]pyrrolo[3,2,1-hi]indole hydrochloride], the pKi was 7.28.
With `CC1CCn2c3c(c4cccc1c42)CCNCC3` (single isomer, unassigned; (-)) [Example 13, (−)-4-methyl-5,6,9,10,11,12-hexahydro-4H,8H-azepino[4′,5′:4,5]pyrrolo[3,2,1-ij]quinoline hydrochloride], the inhibition constant Ki is 45 nM.
In the case of `c1cc2c3c(c1)c1c(n3CCS2)CCNCC1` [Example 27, 1,2,8,9,10,11-hexahydro-7H-azepino[4,5-b][1,4]thiazino[2,3,4-hi]indole hydrochloride], the pKi was 8.29.
Turning to `Clc1ccc2c3c1c1c(n3CCO2)CCNCC1` [Example 22, 6-chloro-1,2,8,9,10,11-hexahydro-7H-azepino[4,5-b][1,4]oxazino[2,3,4-hi]indole hydrochloride], the negative logarithm of the Ki (pKi) was 8.64.
The compound `Cc1cc2c3c(c1)c1c(n3CCO2)CCNCC1` [Example 24, 5-methyl-1,2,8,9,10,11-hexahydro-7H-azepino[4,5-b][1,4]oxazino[2,3,4-hi]indole hydrochloride] yielded an inhibition constant (Ki) of 29 nM.
As to `c1cc2c3c(c1)c1c(n3CCC2)CCNCC1` [Example 1, 5,6,9,10,11,12-hexahydro-4H,8H-azepino[4′,5′:4,5]pyrrolo[3,2,1-ij]quinoline hydrochloride], the negative logarithm of the Ki (pKi) is 7.89.
`COc1ccc2c3c1c1c(n3CCC2)CCNCC1` [Example 3, 1-methoxy-5,6,9,10,11,12-hexahydro-4H,8H-azepino[4′,5′:4,5]pyrrolo[3,2,1-ij]quinoline hydrochloride] showed an inhibitory constant (Ki) of 27 nM.
As for `Cc1ccc2c3c1c1c(n3CCO2)CCNCC1` [Example 20, 6-methyl-1,2,8,9,10,11-hexahydro-7H-azepino[4,5-b][1,4]oxazino[2,3,4-hi]indole hydrochloride], the pKi was 8.42.
Same read-out and setting: the result for `Fc1ccc2c3c1c1c(n3CCO2)CCNCC1` [Example 25, 6-fluoro-1,2,8,9,10,11-hexahydro-7H-azepino[4,5-b][1,4]oxazino[2,3,4-hi]indole hydrochloride] reads 8.10.
In turn, `Fc1cc2c3c(c1)c1c(n3CC2)CCNCC1` [Example 15, 2-fluoro-4,5,8,9,10,11-hexahydro-7H-azepino[4,5-b]pyrrolo[3,2,1-hi]indole hydrochloride] gave a Ki of 24 nM.
As for `c1cc2c3c(c1)c1c(n3CCO2)CCNCC1` [Example 21, 1,2,8,9,10,11-hexahydro-7H-azepino[4,5-b][1,4]oxazino[2,3,4-hi]indole hydrochloride], the negative logarithm of the Ki (pKi) is 7.80.
On to `COc1cc2c3c(c1)c1c(n3CC2)CCNCC1` [Example 16, 2-methoxy-4,5,8,9,10,11-hexahydro-7H-azepino[4,5-b]pyrrolo[3,2,1-hi]indole hydrochloride], for which the inhibition constant (Ki) was 361 nM.
Take `CC1CCc2cccc3c4c(n1c23)CCNCC4` (single isomer, unassigned; (-)) [Example 9, (−)-6-methyl-5,6,9,10,11,12-hexahydro-4H,8H-azepino[4′,5′:4,5]pyrrolo[3,2,1-ij]quinoline hydrochloride]: the pKi is 7.59.
`Fc1cc2c3c(c1)c1c(n3CCO2)CCNCC1` [Example 23, 5-fluoro-1,2,8,9,10,11-hexahydro-7H-azepino[4,5-b][1,4]oxazino[2,3,4-hi]indole hydrochloride]: the pKi is 7.89.
`CC1CCc2cccc3c4c(n1c23)CCNCC4` (stereo not drawn) [Example 5, 6-methyl-5,6,9,10,11,12-hexahydro-4H,8H-azepino[4′,5′:4,5]pyrrolo[3,2,1-ij]quinoline hydrochloride]: the pKi is 7.48.
Consider `Cc1cc2c3c(c1)c1c(n3CCC2)CCNCC1` [Example 2, 2-methyl-5,6,9,10,11,12-hexahydro-4H,8H-azepino[4′,5′:4,5]pyrrolo[3,2,1-ij]quinoline hydrochloride], for which the negative-log Ki (pKi) is 7.10.
As for `c1cc2c3c(c1)c1c(n3C3CCCCC23)CCNCC1` (stereo not drawn) [Example 19, 2,3,4,5,8b,9,10,11,12,12a-decahydro-1H-azepino[4′,5′:4,5]pyrrolo[3,2,1-jk]carbazole hydrochloride], the pKi is 6.84.
On the same count and under the same terms, for `CC1Cc2cccc3c4c(n(c23)C1)CCNCC4` (single isomer, unassigned; (+)) [Example 10, (+)-5-methyl-5,6,9,10,11,12-hexahydro-4H,8H-azepino[4′,5′:4,5]pyrrolo[3,2,1-ij]quinoline hydrochloride] the value was 7.15.
For `CC1Cc2cccc3c4c(n(c23)C1)CCNCC4` (single isomer, unassigned; (-)) [Example 11, (−)-5-methyl-5,6,9,10,11,12-hexahydro-4H,8H-azepino[4′,5′:4,5]pyrrolo[3,2,1-ij]quinoline hydrochloride], the pKi is 7.02.
The same measure, in the same setting: the result for `Fc1cc2c3c(c1)c1c(n3CCC2)CCNCC1` [Example 4, 2-fluoro-5,6,9,10,11,12-hexahydro-4H,8H-azepino[4′,5′:4,5]pyrrolo[3,2,1-ij]quinoline hydrochloride] reads 7.08.
The compound `CC1CCn2c3c(c4cccc1c42)CCNCC3` (single isomer, unassigned; (+)) [Example 12, (+)-4-methyl-5,6,9,10,11,12-hexahydro-4H,8H-azepino[4′,5′:4,5]pyrrolo[3,2,1-ij]quinoline hydrochloride] registered a Ki of 41 nM.
Turning to `CC1Cc2cccc3c4c(n1c23)CCNCC4` (stereo not drawn) [Example 17, 5-methyl-4,5,8,9,10,11-hexahydro-7H-azepino[4,5-b]pyrrolo[3,2,1-hi]indole hydrochloride], the inhibition constant (Ki) amounted to 65 nM.
As for `c1cc2c3c(c1)c1c(n3CC2)CCNCC1` [Example 14, 4,5,8,9,10,11-hexahydro-7H-azepino[4,5-b]pyrrolo[3,2,1-hi]indole hydrochloride], affinity was put at a Ki of 28 nM.
Compound `CC1CCn2c3c(c4cccc1c42)CCNCC3` (stereo not drawn) [Example 7, 4-methyl-5,6,9,10,11,12-hexahydro-4H,8H-azepino[4′,5′:4,5]pyrrolo[3,2,1-ij]quinoline hydrochloride] yielded a Ki of 77 nM.
For `CC1Cc2cccc3c4c(n(c23)C1)CCNCC4` (stereo not drawn) [Example 6, 5-methyl-5,6,9,10,11,12-hexahydro-4H,8H-azepino[4′,5′:4,5]pyrrolo[3,2,1-ij]quinoline hydrochloride], the pKi was 7.36.
